Results as given in US8268369B2, “Compositions and methods for treating hypercholesterolemia using Ortanique peel extract” (The University of the West Indies, priority 2008, dated 2012).
Marks after values point to notes of the source that are not given here.

Tests used:
glutathione reductase = assay: Glutathione reductase activity in organs of rats; assay type: in vivo; settings: hypercholesterolemic rats
glutathione peroxidase = assay: Glutathione peroxidase activity in organs of rats; assay type: in vivo; settings: hypercholesterolemic rats
glutathione transferase = assay: Glutathione transferase activity in organs of rats; assay type: in vivo; settings: hypercholesterolemic rats
[1] = tested on: diet-induced hypercholesterolemic rats; assay: Kidney function: serum creatinine and urea; settings: comparison among the groups

- level of serum creatinine [1]: no significant differences
- level of serum urea [1]: no significant differences
Compound: O=C(O)c1cccnc1 [niacin]
- Glutathione Reductase Activity, Brain (glutathione reductase; brain): 14.95 ± 1.67^a nmol/min/mg protein
- Glutathione Reductase Activity, Heart (glutathione reductase; heart): 12.53 ± 0.85^a nmol/min/mg protein
- Glutathione Reductase Activity, Kidney (glutathione reductase; kidney): 12.36 ± 0.10^a nmol/min/mg protein
- Glutathione Reductase Activity, Spleen (glutathione reductase; spleen): 49.48 ± 3.32^a nmol/min/mg protein
- Glutathione Peroxidase Activity, Brain (glutathione peroxidase; brain): 0.59 ± 0.18^a nmol/min/mg protein
- Glutathione Peroxidase Activity, Heart (glutathione peroxidase; heart): 5.14 ± 0.63^a nmol/min/mg protein
- Glutathione Peroxidase Activity, Kidney (glutathione peroxidase; kidney): 3.35 ± 1.30^a nmol/min/mg protein
- Glutathione Peroxidase Activity, Spleen (glutathione peroxidase; spleen): 0.21 ± 0.034^a nmol/min/mg protein
- Glutathione Transferase Activity, Brain (glutathione transferase; brain): 0.28 ± 0.04^a nmol/min/mg protein
- Glutathione Transferase Activity, Heart (glutathione transferase; heart): 0.21 ± 0.011^a nmol/min/mg protein
- Glutathione Transferase Activity, Kidney (glutathione transferase; kidney): 0.20 ± 0.05^b nmol/min/mg protein
- Glutathione Transferase Activity, Spleen (glutathione transferase; spleen): 0.16 ± 0.07^b nmol/min/mg protein
